Reference: patent US9212130B2, “Heterocyclic derivative and pharmaceutical composition comprising the same” (SHIONOGI & CO., LTD., priority 2010, dated 2015)
pIC50: −log10 of the molar value.

Legend:
CYP1A2 = CYP1A2 (Homo sapiens (Human), UniProt P05177); assay: CYP inhibition test, 7-ethoxyresorufin O-deethylation; format: in vitro ADME; conditions: pooled human hepatic microsome; 0.5 μmol/L ethoxyresorufin; given as 'five kinds'
Protocol: (§1) Using commercially available pooled human hepatic microsome, and employing, as markers, 7-ethoxyresorufin O-deethylation (CYP1A2), tolbutamide methyl-hydroxylation (CYP2C9), mephenyloin 4′-hydroxylation (CYP2C19), dextromethorphan O-demethylation (CYP2D6), and terfenedine hydroxylation as typical substrate metabolism reactions of human main five ([…] enzyme forms (CYP1A2, 2C9, 2C19, 2D6, 3A4), an inhibitory degree of each metabolite production amount by a test compound was assessed.
(§2) The reaction conditions were as follows: substrate, 0.5 μmol/L ethoxyresorufin (CYP1A2), 100 μmol/L tolbutamide (CYP2C9), 50 μmol/L S-mephenitoin (CYP2C19), 5 μmol/L dextromethorphan (CYP2D6), 1 μmol/L terfenedine (CYP3A4); reaction time, 15 minutes; reaction temperature, 37° C.; enzyme, pooled human hepatic microsome 0.2 mg protein/mL; test drug concentration, 1.0. 5.0, 10, 20 μmol/L (four points).
(§3) Each five kinds of substrates, human hepatic microsome, or a test drug in 50 mmol/L Hepes buffer as a reaction solution was added to a 96-well plate at the composition as described above. NADPH, as a cofactor was added to initiate metabolism reactions as markers and, after the incubation at 37° C. for 15 minutes, a methanol/acetonitrile=1/1 (v/v) solution was added to stop the reaction. After the centrifugation at 3000 rpm for 15 minutes, resorufin (CYP1A2 metabolite) in the supernatant was quantified by a fluorescent multilabel counter and tributamide hydroxide (CYP2CP metabolite), mephenyloin 4′ hydroxide (CYP2C19 metabolite), […], and terfenadine alcohol (CYP3A4 metabolite) were quantified by LC/MS/MS.
(§4) Addition of only DMSO being a solvent dissolving a drug to a reaction system was adopted as a control (100%), remaining activity (%) was calculated at each concentration of a test drug added as the solution and IC50 was calculated by reverse presumption by a logistic model using a concentration and an inhibition rate.

CYP2C9 = CYP2C9 (Homo sapiens (Human), UniProt P11712); assay: CYP inhibition test, tolbutamide methyl-hydroxylation; format: in vitro ADME; conditions: pooled human hepatic microsome; 100 μmol/L tolbutamide; given as 'five kinds'
Protocol: as §1, §2, §3, §4

CYP3A4 [1] = biological target: T1, CYP3A4 (Homo sapiens (Human), UniProt P08684); assay: CYP3A4 fluorescent MBI test; format: in vitro ADME; conditions: pre-reaction time 0 or 30 minutes; substrate 7-BFC; CYP3A4 expressed in Escherichia coli
Protocol: The CYP3A4 fluorescent MBI test is a test of investigating enhancement of CYP3A4 inhibition of a compound by a metabolism reaction, and the test is performed using, as CYP3A4 enzyme expressed in Escherichia coli and employing, as an index, a reaction in which 7-benzyloxytrifluoromethylchmarin (BFC) is debenzylated by the CYP3A4 enzyme to produce a metabolite, 7-hydroxytrifluoromethylchmarin (HFC) emitting fluorescent light.
The reaction conditions were as follows: substrate, 5.6 μmol/L 7-BFC; pre-reaction time, 0 or 30 minutes; reaction time, 15 minutes; reaction temperature, 25° C.
An enzyme in a K-Pi buffer (pH 7.4) and a test drug solution as a pre-reaction solution were added to a 96-well plate at the composition of the pre-reaction, a part of it was transferred to another 96-well plate so that it was 1/10 diluted by a substrate in a K-Pi buffer, NADPH as a co-factor was added to initiate a reaction as an index (without preincubation) and, after a predetermined time of a reaction, acetonitrile: 0.5 mol/L Tris (trishydroxyaminomethane)=4:1 was added to stop the reaction. In addition, NADPH was added to a remaining preincubation solution to initiate a preincubation (with preincubation) and, after a predetermined time of a preincubation, a part was transferred to another plate so that it was 1/10 diluted with a substrate and a K-Pi buffer to initiate a reaction as an index, After a predetermined time of a reaction, acetonitrile: 0.5 mol/L Tris (trishydroxyaminomethane)=4:1 was added to stop the reaction. For the plate on which each index reaction had been performed, a fluorescent value of 7-HFC which is a metabolite was measured with a fluorescent plate reader. (Ex=420 nm, Em=535 nm).
Addition of only DMSO which is a solvent dissolving a drug to a reaction system was adopted as a control (100%), remaining activity (%) was calculated at each concentration of a test drug added as the solution, and IC50 was calculated by reverse-presumption by a logistic model using a concentration and an inhibition rate. When a difference between IC50 values is 5 or more, this was defined as (+) and, when the difference is 3 μmol/L or less, this was defined as (−).

Solubility test = format: physicochemical; conditions: artificial intestinal juice (phosphate buffer) with 1% DMSO, 25 °C, other biorelevant, kinetic from dmso stock, artificial intestinal juice in pH 8.8, 25 degrees Celsius for 16 hours
Protocol: The solubility of a compound was determined under a condition in which 1% DMSO was added. 10 mmol/L compound solution was prepared using DMSO, and then 6 μL of the compound solution was added to 594 μL of artificial intestinal juice in […] (to 250 mL of 0.2 mol/L potassium dihydrogen phosphate reagent solution was added 118 mL of 0.2 mol/L NaOH reagent solution and water to provide a final volume of 1000 mL). After standing at 25 degrees Celsius for 16 hours, the mixed solution was filtrated with suction. The filtrate was diluted twice with methanol/water (1/1) and then a concentration in the filtration was measured with HPLC or LC/MS/MS by the absolute calibration method.

CYP2D6 = CYP2D6 (Homo sapiens (Human), UniProt P10635); assay: CYP inhibition test, dextromethorphan O-demethylation; format: in vitro ADME; conditions: pooled human hepatic microsome; 5 μmol/L dextromethorphan; given as 'five kinds'
Protocol: as §1, §2, §3, §4

CYP3A4 [2] = biological target: T1, CYP3A4; assay: CYP inhibition test, terfenedine hydroxylation; format: in vitro ADME; conditions: pooled human hepatic microsome; 1 μmol/L terfenedine; given as 'five kinds'
Protocol: as §1, §2, §3, §4

CYP2C19 = CYP2C19 (Homo sapiens (Human), UniProt P33261); assay: CYP inhibition test, mephenyloin 4'-hydroxylation; format: in vitro ADME; conditions: pooled human hepatic microsome; 50 μmol/L S-mephenitoin; given as 'five kinds'
Protocol: as §1, §2, §3, §4

human P2X3 receptor = human P2X3 receptor (Homo sapiens (Human), UniProt P56373); assay: Evaluation of human P2X3 receptor inhibitory activity (ATP-induced Fluo-3 fluorescence, FDSS 3000); format: cell-based; conditions: C6BU-1 cell transfected with human P2X3 receptor gene
Method in brief: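 Human P2X3 inhibition read as ATP-evoked Fluo-3 calcium fluorescence; compound preincubated, then 50 nM ATP solution (concentration as dispensed) added and fluorescence followed 3 min. Response taken as peak-to-baseline fluorescence ratio per well; IC50 derived from concentration–response.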

[3] = Bioavailability (BA) test; format: in vivo; conditions: plasma; Mice or SD rats; oral 0.3 to 30 mg/kg vs intravenous 0.5 to 10 mg/kg; from AUCs
Protocol: Materials and Methods for Experiment of BA
• (1) Animals: Mice or SD rats were used • (2) Breeding conditions: Mice or SD rats were allowed to freely take solid food and sterilized tap water. • (3) Dose and grouping: orally or intravenously administered at a predetermined dose; grouping was as follows (Dose depends on the compound) Oral administration: 0.3 to 30 mg/kg (n=2 to 3) Intravenous administration: 0.5 to 10 mg/kg (n=2 to 3) • (4) Preparation of dosing solution: for oral administration, in a solution or a suspension state; for intravenous administration, in a solubilized state • (5) Administration method: in oral administration, forcedly administer into ventriculus with oral probe; in intravenous administration, administer from caudal vein with a needle-equipped syringe • (6) Evaluation items: blood was collected over time, and the plasma concentration of drug was measured by LC/MS/MS • (7) Statistical analysis: regarding the transition of the plasma concentration of the present compound, the area under the plasma concentration-time curve (AUC) was calculated by non-linear least squares program WinNonlin (Registered trade name), and the bioavailability (BA) was calculated from the AUCs of the oral administration group and intravenous administration group

[4] = Metabolism stability test (pooled human hepatic microsomes); format: in vitro ADME; conditions: human liver microsomes 0.5 mg protein/mL; 37° C., 30 minutes; 1 mmol/L NADPH; compound concentration 0.5 μmol/L
Protocol: Using commercially available pooled human hepatic microsomes, a test compound was reacted for a constant time, a remaining rate was calculated by comparing a reacted sample and an unreacted sample, thereby, a degree of metabolism in liver was assessed.
A reaction was performed (oxidative reaction) at 37° C. for 0 minute or 30 minutes in the presence of 1 mmol/L NADPH in 0.2 mL of a buffer (50 mmol/L tris-HCl pH 7.4, 150 mmol/L potassium chloride, 10 mmol/L magnesium chloride) containing 0.5 mg protein/mL of human liver microsomes. After the reaction, 50 μL of the reaction solution was added to 100 μL of a methanol/acetonitrile 1/1 (v/v), mixed and centrifuged at 3000 rpm for 15 minutes. The test compound in the supernatant was quantified by LC/MS/MS, and a remaining amount of the test compound after the reaction was calculated, letting a compound amount at 0 minute reaction time to be 100%.

Sequence of CYP2C9 (P11712 whole entry): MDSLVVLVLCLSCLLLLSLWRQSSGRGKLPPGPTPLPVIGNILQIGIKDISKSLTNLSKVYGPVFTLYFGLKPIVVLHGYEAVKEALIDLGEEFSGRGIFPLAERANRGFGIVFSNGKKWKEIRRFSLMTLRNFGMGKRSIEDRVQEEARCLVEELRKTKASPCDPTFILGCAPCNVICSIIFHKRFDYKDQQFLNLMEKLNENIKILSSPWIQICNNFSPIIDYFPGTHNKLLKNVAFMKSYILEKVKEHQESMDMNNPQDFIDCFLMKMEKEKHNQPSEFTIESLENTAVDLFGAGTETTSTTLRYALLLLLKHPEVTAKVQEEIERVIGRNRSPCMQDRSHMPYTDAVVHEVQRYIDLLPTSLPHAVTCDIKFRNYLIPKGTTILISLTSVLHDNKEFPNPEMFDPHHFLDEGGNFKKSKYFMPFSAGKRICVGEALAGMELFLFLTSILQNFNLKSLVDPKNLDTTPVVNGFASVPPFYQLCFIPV
Sequence of CYP2D6 (P10635 whole entry): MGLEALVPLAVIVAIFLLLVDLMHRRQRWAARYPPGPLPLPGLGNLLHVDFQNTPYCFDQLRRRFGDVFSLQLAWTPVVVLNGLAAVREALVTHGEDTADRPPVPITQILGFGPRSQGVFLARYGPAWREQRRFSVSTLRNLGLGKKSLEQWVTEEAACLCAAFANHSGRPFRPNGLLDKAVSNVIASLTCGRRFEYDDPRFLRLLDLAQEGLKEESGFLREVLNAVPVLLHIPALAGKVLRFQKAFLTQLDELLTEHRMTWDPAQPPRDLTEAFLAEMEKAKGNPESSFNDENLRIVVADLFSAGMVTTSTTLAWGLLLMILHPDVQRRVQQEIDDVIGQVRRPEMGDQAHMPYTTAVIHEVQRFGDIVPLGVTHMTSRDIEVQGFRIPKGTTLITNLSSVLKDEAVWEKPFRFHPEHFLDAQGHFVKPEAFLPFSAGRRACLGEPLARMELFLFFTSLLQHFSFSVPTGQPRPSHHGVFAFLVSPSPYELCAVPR
Sequence of CYP2C19 (P33261 whole entry): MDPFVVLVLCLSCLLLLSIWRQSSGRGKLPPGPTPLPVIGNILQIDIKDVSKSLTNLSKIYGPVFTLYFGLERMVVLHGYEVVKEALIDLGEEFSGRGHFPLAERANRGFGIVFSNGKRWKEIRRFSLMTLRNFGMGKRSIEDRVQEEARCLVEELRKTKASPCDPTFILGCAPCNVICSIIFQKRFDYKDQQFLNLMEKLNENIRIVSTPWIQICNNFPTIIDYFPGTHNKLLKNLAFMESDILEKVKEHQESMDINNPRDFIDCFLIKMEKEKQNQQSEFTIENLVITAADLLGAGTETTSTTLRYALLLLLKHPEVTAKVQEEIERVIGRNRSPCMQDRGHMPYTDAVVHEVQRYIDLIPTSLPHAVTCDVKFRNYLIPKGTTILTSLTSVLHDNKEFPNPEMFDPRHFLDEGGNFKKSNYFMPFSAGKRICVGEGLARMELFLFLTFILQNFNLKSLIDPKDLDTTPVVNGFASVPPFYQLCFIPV
T1 sequence (P08684 whole entry): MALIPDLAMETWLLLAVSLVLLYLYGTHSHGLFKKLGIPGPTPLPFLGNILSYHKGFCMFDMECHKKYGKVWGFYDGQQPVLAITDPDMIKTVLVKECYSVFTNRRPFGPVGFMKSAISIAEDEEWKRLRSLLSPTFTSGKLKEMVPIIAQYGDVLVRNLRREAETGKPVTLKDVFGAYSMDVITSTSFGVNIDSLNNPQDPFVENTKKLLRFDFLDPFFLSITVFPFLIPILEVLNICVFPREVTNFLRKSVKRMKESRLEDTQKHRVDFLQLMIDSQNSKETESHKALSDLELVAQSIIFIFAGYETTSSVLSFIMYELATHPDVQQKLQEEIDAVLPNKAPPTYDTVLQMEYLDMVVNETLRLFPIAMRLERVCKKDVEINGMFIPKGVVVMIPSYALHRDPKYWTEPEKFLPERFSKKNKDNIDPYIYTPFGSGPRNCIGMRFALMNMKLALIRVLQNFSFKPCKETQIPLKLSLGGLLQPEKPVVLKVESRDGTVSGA
Sequence of human P2X3 receptor (P56373 whole entry): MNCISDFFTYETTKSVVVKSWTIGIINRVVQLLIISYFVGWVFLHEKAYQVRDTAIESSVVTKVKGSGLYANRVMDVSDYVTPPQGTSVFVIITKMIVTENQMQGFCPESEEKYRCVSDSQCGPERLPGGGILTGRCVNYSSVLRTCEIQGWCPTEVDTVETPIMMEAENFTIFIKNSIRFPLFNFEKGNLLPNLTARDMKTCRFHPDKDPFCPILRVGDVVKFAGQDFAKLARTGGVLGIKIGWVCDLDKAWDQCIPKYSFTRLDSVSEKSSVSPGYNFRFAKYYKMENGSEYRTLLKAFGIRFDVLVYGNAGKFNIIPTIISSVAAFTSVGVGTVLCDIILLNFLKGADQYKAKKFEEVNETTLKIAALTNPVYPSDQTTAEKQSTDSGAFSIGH
Sequence of CYP1A2 (P05177 whole entry): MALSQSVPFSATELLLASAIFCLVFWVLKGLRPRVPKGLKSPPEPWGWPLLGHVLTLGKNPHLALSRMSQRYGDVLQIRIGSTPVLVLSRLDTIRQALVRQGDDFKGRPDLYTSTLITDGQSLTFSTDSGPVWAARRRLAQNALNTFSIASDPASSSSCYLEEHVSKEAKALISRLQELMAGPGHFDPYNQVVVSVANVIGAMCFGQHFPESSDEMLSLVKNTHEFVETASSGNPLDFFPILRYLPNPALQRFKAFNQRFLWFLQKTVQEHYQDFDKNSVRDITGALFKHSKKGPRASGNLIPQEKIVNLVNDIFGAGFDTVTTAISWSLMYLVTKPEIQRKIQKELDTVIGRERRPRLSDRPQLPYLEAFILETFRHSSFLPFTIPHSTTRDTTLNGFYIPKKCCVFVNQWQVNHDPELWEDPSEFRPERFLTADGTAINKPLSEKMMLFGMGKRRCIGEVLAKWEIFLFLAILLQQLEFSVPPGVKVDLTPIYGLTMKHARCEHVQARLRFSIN

| Structure (SMILES) | pIC50 (CYP1A2) | pIC50 (CYP2C9) | IC50 difference (CYP3A4 [1]) | solubility at 16 h (Solubility test) | pIC50 (CYP2D6) | pIC50 (CYP3A4 [2]) | pIC50 (CYP2C19) | pIC50 (human P2X3 receptor) | bioavailability [3] | remaining rate [4] |
| --- | --- | --- | --- | --- | --- | --- | --- | --- | --- | --- |
| O=C(O)c1cncc(Oc2ccc(Nc3ncc(NC(=O)C4CCOCC4)c(=O)n3Cc3ccc(Cl)cc3)cc2)c1 [I-305] | < 4.70 | < 4.70 | < 3 µM | > 50 µM | < 4.70 | < 4.70 | < 4.70 | 8.40 |  |  |
| Cc1nc2ccc(Nc3nc(=O)c(C(=O)NC4CCOCC4)cn3Cc3ccc(Cl)cc3)cc2s1 [I-286] |  |  |  |  |  |  |  | 8.10 | 41.7% |  |
| CCn1c(=O)cc(Nc2ccc(Oc3cncc(C(=O)O)c3)cc2)n(Cc2ccc(Cl)cc2)c1=O [I-315] |  |  | < 3 µM |  |  |  |  | 8.22 |  | 105% |
| O=C(O)c1cccc(Oc2ccc(Nc3ncc(NC(=O)C4CCOCC4)c(=O)n3Cc3ccc(Cl)cc3)cc2)c1 [I-359] |  |  | < 3 µM |  |  |  |  | 8.70 |  | 101% |
| Cc1cc(Nc2cc(=O)n(C[C@H](C)C(=O)O)c(=O)n2Cc2ccc(Cl)cc2)ccc1OC(C)C [I-215] |  |  |  |  |  |  |  | 7.62 | 49.7% |  |
| Cc1nc2ccc(Nc3cc(=O)n(CCCC(=O)O)c(=O)n3Cc3ccc(Cl)cc3)cc2s1 [I-354] | < 4.70 | < 4.70 | < 3 µM |  | < 4.70 | < 4.70 | < 4.70 | 7.03 |  |  |
| Cc1ncc(Oc2ccc(Nc3ncc(NC(=O)C4CCOCC4)c(=O)n3Cc3ccc(Cl)cc3)cc2)cc1F [I-313] |  |  |  |  |  |  |  | 8.52 | 28.5% |  |
| CC(C)Oc1ccc(Nc2nc(=O)c(C(=O)NC3CCOCC3)cn2Cc2ccc(Cl)cc2)cc1F [I-241] | < 4.70 | < 4.70 |  |  | < 4.70 | < 4.70 | < 4.70 | 7.51 |  | 88% |
| CC(C)Oc1ccc(Nc2cc(=O)n(CC(C)(C)C(=O)O)c(=O)n2Cc2ccc(Cl)cc2)cc1F [I-021] |  |  |  |  |  |  |  | 7.72 | 49.1% |  |
